Values of other authors in US20240191206A1, “SERUM FREE MEDIA FOR SUSPENSION CULTURE OF MAMMALIAN LIVESTOCK PLURIPOTENT STEM CELLS” (ACCELLTA LTD., priority 2021, published 2024).

SMILES: O=S(=O)(F)Cc1ccccc1 [PMSF, phenylmethylsulfonyl fluoride]
- stability in water: rapidly degraded
- concentration at which proteolytic inhibition occurs (serine protease): 0.1 to 1 mM
